Data from patent publication US8778929B2, “Substituted heteroaryl inhibitors of B-RAF” (Boehringer Ingelheim International GmbH, priority 2008, dated 2014).

Biological target: B-Raf (V600E)-kinase (Homo sapiens, UniProt P15056, V600E)
Test: Kinase test B-Raf (V600E)
Format: biochemical
Details: compound concentration 2 μM; 100% = no inhibition, 0% = total inhibition; read-out: % CTL (residual activity of the enzyme relative to DMSO control)
Summary of the method: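 Kinase preincubated with compound (typically 2 μM to 0.119 nM or 0.017 nM, 5% DMSO) 1 h at RT, then reacted 60 min at RT with 250 μM ATP and biotinylated MEK1. Phospho-MEK (Ser217/221) captured on streptavidin, detected by europium time-resolved fluorescence; IC50 from dose-response curves.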

Chain of B-Raf (V600E)-kinase (P15056 whole entry V600E): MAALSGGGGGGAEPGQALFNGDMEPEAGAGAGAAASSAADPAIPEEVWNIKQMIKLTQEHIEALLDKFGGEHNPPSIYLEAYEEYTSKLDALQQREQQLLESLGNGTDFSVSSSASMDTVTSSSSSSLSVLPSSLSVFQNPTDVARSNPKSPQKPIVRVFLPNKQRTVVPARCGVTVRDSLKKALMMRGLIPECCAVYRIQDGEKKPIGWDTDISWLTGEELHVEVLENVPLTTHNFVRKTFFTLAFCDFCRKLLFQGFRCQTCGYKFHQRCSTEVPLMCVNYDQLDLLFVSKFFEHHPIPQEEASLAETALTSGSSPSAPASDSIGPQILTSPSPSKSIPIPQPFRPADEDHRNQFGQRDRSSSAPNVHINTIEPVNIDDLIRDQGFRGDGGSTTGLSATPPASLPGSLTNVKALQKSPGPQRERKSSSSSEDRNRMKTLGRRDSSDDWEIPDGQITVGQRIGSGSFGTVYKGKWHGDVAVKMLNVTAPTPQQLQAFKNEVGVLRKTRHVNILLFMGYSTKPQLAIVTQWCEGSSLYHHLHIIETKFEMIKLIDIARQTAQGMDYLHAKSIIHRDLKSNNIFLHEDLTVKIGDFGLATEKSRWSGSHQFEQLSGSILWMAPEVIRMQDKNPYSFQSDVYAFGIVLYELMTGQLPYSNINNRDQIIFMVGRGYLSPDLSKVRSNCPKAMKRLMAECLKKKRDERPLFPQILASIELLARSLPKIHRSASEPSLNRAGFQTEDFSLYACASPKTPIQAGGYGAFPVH

Compound | remaining activity at 2 µM [%]
Cc1ncc(C(=O)Nc2cc(CN(C)C)c(Cl)c(C(F)(F)F)c2)cc1-n1cc(-c2cnn(C)c2C)nn1 [Example I-52] | 1.6
Cc1ncc(C(=O)Nc2ccc(Cl)c(C(F)(F)F)c2)cc1-n1cc(-c2cncc(N3CCN(C)CC3)c2)nn1 [Example I-142] | 1.5
CCN1CCN(c2cc(NC(=O)c3cnc(C)c(-n4cc(-c5cncc(OC)c5)nn4)c3)cc(C(F)(F)F)c2C)CC1 [Example I-26] | 1.4
Cc1ncc(C(=O)Nc2cc(C3=CCN(C)CC3)cc(C(F)(F)F)c2)cc1-n1cc(-c2cnn(C)c2C)nn1 [Example I-87] | 1.7
COc1c(CN(C)C)cc(C(F)(F)F)cc1NC(=O)c1cnc(C)c(-n2cc(-c3cnn(C)c3C)nn2)c1 [Example I-102] | 4.6
Cc1ncc(C(=O)Nc2cc(C(F)(F)F)ccn2)cc1-n1cc(-c2cncc(N3CCN(C)CC3)c2)nn1 [Example I-144] | 1.9
COc1cncc(-c2cn(-c3cc(C(=O)Nc4cc(CN5CCCC5)c(Cl)c(C(F)(F)F)c4)cnc3C)nn2)c1 [Example I-90] | 2.1
Cc1ncc(C(=O)Nc2nc(C(C)(C)C)cs2)cc1-n1cc(-c2cncc(N3CCN(C(C)C)CC3)c2)nn1 [Example I-148] | 4
COc1ccc(NC(=O)c2cnc(C)c(-n3cc(-c4cncs4)nn3)c2)cc1C(F)(F)F [Example I-89] | 1.5
Cc1ncc(C(=O)Nc2cc(CNC(C)C)cc(C(F)(F)F)c2)cc1-n1cc(-c2cnn(C)c2C)nn1 [Example I-107] | 1.6
COc1ccc(NC(=O)c2cnc(C)c(-n3cc(-c4cnn(C)c4C)nn3)c2)cc1C(F)(F)F [Example I-7] | 2
Cc1ncc(NC(=O)c2cc(OC(F)(F)F)cc(C3=CCNCC3)c2)cc1-n1cc(-c2cnn(C)c2C)nn1 [XII-30] | 1.8
CCCN1CCN(c2cncc(-c3cn(-c4cc(C(=O)Nc5cc(C(C)(C)C)on5)cnc4C)nn3)c2)CC1 [Example I-164] | 9.9
Cc1ncc(C(=O)Nc2cc(CN3CCCC3)cc(C(F)(F)F)c2)cc1-n1cc(-c2cnn(C)c2C)nn1 [Example I-12] | 1.8
Cc1ncc(C(=O)Nc2cc(C(C)(C)C)on2)cc1-n1cc(-c2cncs2)nn1 [Example I-82] | 1.6
CCN1CCN(c2cncc(-c3cn(-c4cc(NC(=O)c5cccc(C(C)(C)C#N)c5)cnc4C)nn3)c2)CC1 [XII-51] | 2.3
COCCNc1cncc(-c2cn(-c3cc(C(=O)Nc4cc(C(C)(C)C)on4)cnc3C)nn2)c1 [Example I-41] | 1.1
Cc1ncc(C(=O)Nc2cc(CNC(C)C)c(Cl)c(C(F)(F)F)c2)cc1-n1cc(-c2cnn(C)c2C)nn1 [Example I-54] | 1.2
Cc1ncc(C(=O)Nc2cc(CN3CCCC3)c(Cl)c(C(F)(F)F)c2)cc1-n1cc(-c2cnn(C)c2C)nn1 [Example I-53] | 1.4
Cc1ncc(-c2cn(-c3cc(NC(=O)c4cc(OC(F)(F)F)cc(N5CCN(C)CC5)c4)cnc3C)nn2)s1 [XII-23] | 7.2
Cc1ncc(C(=O)Nc2cc(C(C)(C)C)on2)cc1-n1cc(-c2cncc(N3CCN(C4CC4)CC3)c2)nn1 [Example I-165] | 8.9
COCCCN1CCN(c2cncc(-c3cn(-c4cc(C(=O)Nc5cc(C(C)(C)C)on5)cnc4C)nn3)c2)CC1 [Example I-169] | 8.4
Cc1ncc(C(=O)Nc2cc(C(C)(C)C)on2)cc1-n1cc(-c2cncc(N(C)C3CCOC3)c2)nn1 (stereo not drawn) [Example I-38] | 2.4
Cc1ncc(NC(=O)c2cc(OC(F)(F)F)cc(N3CCN(C)CC3)c2)cc1-n1cc(-c2cncc(C#N)c2)nn1 [XII-27] | 2.4
COCCN(C)Cc1cc(NC(=O)c2cnc(C)c(-n3cc(-c4cnn(C)c4C)nn3)c2)cc(C(F)(F)F)c1OC [Example I-96] | 3.4
Cc1ccc(C(F)(F)F)cc1C(=O)Nc1cnc(C)c(-n2cc(-c3cnn(C)c3C)nn2)c1 [XII-9] | 6.6
Cc1ncc(C(=O)Nc2cc(C(C)(C)C)no2)cc1-n1cc(-c2cnn(C)c2C)nn1 [Example I-42] | 1.6

Compound | remaining activity at 2 µM [%]
Cc1ncc(C(=O)Nc2cc(C(C)(C)C)ncn2)cc1-n1cc(-c2cncc(N3CCN(C)CC3)c2)nn1 [Example I-177] | 1.9
Cc1ncc(C(=O)Nc2cc(C(C)(C)C)on2)cc1-n1cc(-c2cncc(N3CCN(CC(F)(F)F)CC3)c2)nn1 [Example I-182] | 2.1
Cc1ncc(C(=O)Nc2cc(N3CCN(C)CC3)c(F)c(C(F)(F)F)c2)cc1-n1cc(-c2cncs2)nn1 [Example I-128] | 5.3
Cc1ncc(NC(=O)c2cc(OC(F)(F)F)cc(N(C)CCN(C)C)c2)cc1-n1cc(-c2cnn(C)c2C)nn1 [XII-20] | 1.6
Cc1ncc(C(=O)Nc2cc(N3CC[C@H](N(C)C)C3)c(C)c(C(F)(F)F)c2)cc1-n1cc(-c2cnn(C)c2C)nn1 [Example I-63] | 4.6
Cc1ncc(NC(=O)c2cccc(OC(F)(F)F)c2)cc1-n1cc(-c2cncc(N3CCN(C(C)(C)C)CC3)c2)nn1 [XII-47] | 4
COc1ccc(NC(=O)c2cnc(C)c(-n3cc(-c4cncc(N5CCN(C)CC5)c4)nn3)c2)cc1C(F)(F)F [Example I-146] | 2
Cc1ncc(C(=O)Nc2cc(C(C)(C)C)on2)cc1-n1cc(-c2cncnc2)nn1 [Example I-21] | 2.2
Cc1ncc(C(=O)Nc2cc(C(F)(F)F)ccn2)cc1-n1cc(-c2cncs2)nn1 [Example I-81] | 1.2
CCN1CCN(c2cc(NC(=O)c3cnc(C)c(-n4cc(-c5cncs5)nn4)c3)cc(C(F)(F)F)c2C)CC1 [Example I-43] | 1.1
COc1c(CNC(C)C)cc(C(F)(F)F)cc1NC(=O)c1cnc(C)c(-n2cc(-c3cnn(C)c3C)nn2)c1 [Example I-13] | 2.3
Cc1ncc(C(=O)Nc2cc(C3=CCN(C)CC3)c(C)c(C(F)(F)F)c2)cc1-n1cc(-c2cnn(C)c2C)nn1 [Example I-125] | 1.2
CCN1CCN(c2cncc(-c3cn(-c4cc(NC(=O)c5ccc(OC)c(C(F)(F)F)c5)cnc4C)nn3)c2)CC1 [XII-39] | 2.5
COc1c(CNC(C)C)cc(NC(=O)c2cnc(C)c(-n3cc(-c4cnn(C)c4C)nn3)c2)cc1C(F)(F)F [Example I-103] | 3.8
CCN1CCN(c2cc(C(F)(F)F)cc(NC(=O)c3cnc(C)c(-n4cc(-c5cnn(C)c5C)nn4)c3)c2C)CC1 [Example I-120] | 1.7
CCN1CC=C(c2cc(NC(=O)c3cnc(C)c(-n4cc(-c5cnn(C)c5C)nn4)c3)cc(C(F)(F)F)c2C)CC1 [Example I-97] | 3.3
Cc1ncc(C(=O)Nc2cc(N(C)CCN(C)C)c(C)c(C(F)(F)F)c2)cc1-n1cc(-c2cnn(C)c2C)nn1 [Example I-71] | 5.5
CCNc1cc(NC(=O)c2cnc(C)c(-n3cc(-c4cnn(C)c4C)nn3)c2)cc(C(F)(F)F)c1C [Example I-68] | 4.7
Cc1ncc(C(=O)Nc2cc(C3=CCNCC3)c(C)c(C(F)(F)F)c2)cc1-n1cc(-c2cnn(C)c2C)nn1 [Example I-126] | 5.7
Cc1ncc(NC(=O)c2cc(NCCN(C)C)cc(OC(F)(F)F)c2)cc1-n1cc(-c2cnn(C)c2C)nn1 [XII-21] | 1.5
Cc1ncc(C(=O)Nc2cc(C(C)(C)C)on2)cc1-n1cc(-c2cncc(N3CCN(C4CCCC4)CC3)c2)nn1 [Example I-166] | 7.9
Cc1ncc(NC(=O)c2cc(C(F)(F)F)ccn2)cc1-n1cc(-c2cncc(N3CCN(C(C)(C)C)CC3)c2)nn1 [XII-32] | 2.9
Cc1ncc(C(=O)Nc2cc(CN3CCCC3)cc(C(F)(F)F)c2)cc1-n1cc(-c2cncnc2)nn1 [Example I-72] | 5.1
Cc1ncc(C(=O)Nc2cc(CN3CCCC3)cc(C(F)(F)F)c2)cc1-n1cc(-c2cncs2)nn1 [Example I-123] | 5.8
Cc1ncc(C(=O)Nc2cc(N3CCN(C)CC3)cc(C(F)(F)F)c2)cc1-n1cc(-c2cnn(C)c2C)nn1 [Example I-3] | 8.7
Cc1ncc(C(=O)Nc2cc(C(C)(C)C)on2)cc1-n1cc(-c2cncc(N3CCN(CC4CCCCC4)CC3)c2)nn1 [Example I-173] | 2.4
CCCN1CCN(c2cncc(-c3cn(-c4cc(NC(=O)c5cc(C(F)(F)F)ccn5)cnc4C)nn3)c2)CC1 [XII-41] | 3.1
